Test results from patent US20100203021A1, “PROVISION OF NEW CARDIOMYOCYTE PROGENITOR CELLS AND CARDIOMYOCYTES DERIVED THEREFROM” (LEAD PHARMA CEL MODELS IP B.V., priority 2007, published 2010).

Assays:
Type in all cases: cell-based, human
hCMPCs = test: Differentiation of hCMPCs into cardiomyocytes (5-azacytidine, ascorbic acid, TGFβ); RT-PCR, Western blot, α-actinin immunofluorescence
Method: For a cell type to be suitable for cardiomyocyte replacement therapies, it should not only be able to proliferate but also differentiate efficiently into cardiomyocytes. To study the capacity of the hCMPCs of the invention to differentiate into cardiomyocytes, cells were plated at 10^5 per cm^2 in differentiation medium containing ascorbic acid and treated with 5-azacytidine (which is a demethylating agent).
(§1) To determine whether CMPCs of the invention were capable of responding to TGFβ ligand we examined their ability to phosphorylate smad proteins. TGFβ exerts its effect by binding to a complex of type I and type II receptor and phosphorylating Smads^30. TGFβ phosphorylates Smad2 while BMP phosphorylates Smad1. […] To examine the effect of TGFβ on cardiomyocyte differentiation, hCMPCs were plated at 2×10^4 cells per cm^2 in differentiation medium, treated with 5-aza for 24 hours and cultured for up to 3 weeks in differentiation medium supplemented with TGFβ (1 ng/ml).
To induce differentiation, cells were treated with 5 μM 5′-azacytidine (Sigma) for 72 hours in differentiation medium (Iscove's Modified Dulbecco's Medium/HamsF12 (1:1) (Gibco)) supplemented with L-Glutamine (Gibco), 2% horse serum, non-essential amino acids, Insulin-Transferrin-Selenium supplement, and 10^−4 M Ascorbic Acid (Sigma)). After induction, the medium was changed every 3 days.
For TGFβ treatment, CMPCs were cultured in differentiation medium, stimulated with 5 μM 5′-azacytidine (Sigma) and 1 ng/ml TGFβ1 (Sigma) added 24 hours later. The medium was changed every 3 days.
RNA was isolated using of Trizol (Invitrogen, Breda, The Netherlands) and reverse transcribed using oligo-dT Superscript 3 (Invitrogen). The PCR reactions started with 2 min at 94° C. followed by 35 cycles of: 15 s at 94° C., 30 s at 55° C. and 45 s at 72° C. Products were analyzed on ethidium bromide-stained 1% agarose gel. β-tubulin or β-actin were used as RNA input control.
Coverslips with cultured cells were rinsed in serum free medium, fixed in methanol (−20° C.) or 4% paraformaldehyde, washed with PBS and permeabilized with 0.2% Triton X-100/PBS. Non-specific binding of antibodies was blocked with 2% bovine serum albumin (BSA). Incubation with primary antibodies was performed overnight in PBS/10% normal goat serum (NGS). Antibodies used recognized GATA-4 (Santa Cruz), Islets-1 (Hybridoma Bank), Cx40 (Chemicon), Cx43 (Zymed), Cx45 (kindly provided by Dr. T. H. Steinberg, Washington University, St. Louis, USA), α-actinin (Sigma), Troponin I (Chemicon) desmin (Sanbio), titin (Sigma), MLC2v (Alexis), β-MHC (kindly provided by Dr. A. F. M. Moorman, AMC Amsterdam, Netherlands), N-cadherin (Sigma) and ZO-1 (Zymed). Immunolabeling was performed using Texas Red (TR)- or fluorescein isothiocyanate (FITC)-conjugated secondary antibodies (Jackson Laboratories). All incubation steps were performed at room temperature and in between all incubation steps, cells were washed with PBS. Finally, coverslips were mounted in Vectashield (Vector Laboratories) and examined with a Nikon Optiphot-2 light microscope equipped for epifluorescence.
Western blot analysis was performed as described previously^35. Detection was by ECL (Amersham). […]

Smad2 = test: Western blot for TGFβ induced Smad2 phosphorylation in CMPCs; conditions: 1 ng/ml TGFβ, Western blot α-pSmad2
Method: as §1
(§2) FIG. 3: (A) Western blot analysis on protein samples isolated from CMPCs stimulated without or with 1 ng/ml TGFβ or 25 ng/ml BMP-6 and probed with α-pSmad1 or α-pSmad2. Asterisk indicates an non-specific band showing equal loading. B) Semi-quantitative RT-PCR on RNA isolated from CMPCs stimulated without or with 1 ng/ml TGFβ for the indicated days probed for the expression of the early cardiac transcription factors Nkx2.5 and Mef2C, the contractile proteins cardiac actin, cardiac Troponin I, desmin, ANP and MLC2v. β-actin was used as a control for equal RNA input. C) Western blot analysis on protein samples from CMPCs stimulated without or with 1 ng/ml TGF for the indicated days, probed for Nkx2.5 or α-actinin. […] Counterstaining of nuclei was performed using DAPI. Bar=50 μm. […]

CMPC = test: In vitro angiogenesis assay: tube formation by CMPC on Matrigel/ECMatrix; conditions: CMPCs on Matrigel, addition of VEGF
Excerpt: We have also established differentiation of CMPCs of the invention into tubular vascular structures (angiogenesis) on Matrigel, said “tubular vascular structures” which are sometimes also denoted herein as “tubular structures” containing aligned endothelial cells encircled by smooth muscle cells. […] The formation of these newly formed capillary tubes can be visualised for example by staining α-SMA (a smooth muscle actin) on smooth muscle cells and/or PECAM-1 (platelet endothelial cell adhesion molecule-1, CD31) on endothelial cells (see also appended Example 8). Antibodies which can be used in this regard are exemplified in the following: SMA antibody: AB5694 from abcam, clone 1A4, Sigma, cat. Number: A2547, or Dako, cat. Number M08510. Endothelial cells: PECAM-1 clone 9G11 or CD34 clone Qbend/10 form Biogenex or CD31 from Sigma and ve-cadherin from Santa Cruz.
In this case the assay is set up in order to test the influence of diverse compounds (i.e. chemical compounds or miRNA etc.) on tube formation by CMPC (cardio mycocyte progenitor cells). In order for these cells to form tubes these cells have to differentiate into smooth muscle cells and endothelial cells.
The formation of these newly formed capillary tubes is visualised by staining α-SMA (α smooth muscle actin) on smooth muscle cells and PECAM-1 (platelet endothelial cell adhesion molecule-1, CD31) on endothelial cells. […]

Smad1 = test: Western blot for BMP induced Smad1 phosphorylation in CMPCs; conditions: 25 ng/ml BMP-6, Western blot α-pSmad1
Method: as §1, §2

Molecule: Nc1ncn([C@@H]2O[C@H](CO)[C@@H](O)[C@H]2O)c(=O)n1 [5-azacytidine, reference compound]
- differentiation of hCMPCs into cardiomyocytes (beating areas) (hCMPCs; hCMPCs 10^5 per cm^2, differentiation medium with ascorbic acid, three weeks after treatment): spontaneously beating areas were observed

Molecule: TGFβ: TGFβ1 (Sigma), 1 ng/ml, added to differentiation medium
- Smad2 phosphorylation (Smad2): TGFβ induced Smad2 phosphorylation
- expression of Nkx2.5 and α-actinin (Western blot) (hCMPCs; CMPCs, 7 days of culture in the presence of TGFβ 1 ng/ml): increased dramatically
- percentage of α-actinin positive cells (hCMPCs; hCMPCs, 5-aza 24 hours, then TGFβ 1 ng/ml, immunofluorescent staining): ~100%
- expression of cardiac genes Troponin-I, ANP, cardiac-actin and desmin (RT-PCR) (hCMPCs; hCMPCs, 5-aza, TGFβ 1 ng/ml, undetectable in its absence): already observed 7 days after the initiation of differentiation
- MLC2v expression (RT-PCR) (hCMPCs; hCMPCs, 5-aza, TGFβ 1 ng/ml, without TGFβ only after 3 weeks): already present after two weeks

Molecule: VEGF
- formation of capillary tubes (CMPC): can be induced

B1: BMP: bone morphogenetic protein; 25 ng/ml BMP-6 in FIG. 3A (protein, UniProt P22004 375-513, looked up)
Bone morphogenetic protein 6: SASSRRRQQSRNRSTQSQDVARVSSASDYNSSELKTACRKHELYVSFQDLGWQDWIIAPKGYAANYCDGECSFPLNAHMNATNHAIVQTLVHLMNPEYVPKPCCAPTKLNAISVLYFDDNSNVILKKYRNMVVRACGCH
- Smad1 phosphorylation (Smad1): clear BMP induced Smad1 phosphorylation
